According to US20080027001A1, “NOGO RECEPTOR FUNCTIONAL MOTIFS, PEPTIDE MIMETICS, AND MUTATED FUNCTIONAL MOTIFS RELATED THERETO, AND METHODS OF USING THE SAME” (priority 2006, published 2008):
Values joined by “and” are separate entries in the source; they are usually repeats but may differ in a detail not shown here. Equal values may be shown once. “Also recorded” adds a separate entry of the source. Bridges are numbered along the chain shown (N, C = ends).

Tests used:
cerebellar neurons [1] = test: Neurite outgrowth assay, inhibition by soluble MAG-Fc; assay type: cell-based, rat; conditions: for efficacy of peptide relative to NRL2b over a range of concentrations / antagonism of inhibitory activity of MAG-Fc: MAG-Fc 20 μg/ml; for efficacy of peptide relative to NRL2b over a range of concentrations: FIG. 6C, 6D, position 2 effect at 25-50 μg/ml; for antagonism of MAG-mediated inhibition of axonal growth / effect on MAG-Fc-suppressed neurite outgrowth: peptide 100 μg/ml; for antagonism of MAG-mediated inhibition of axonal growth: MAG-Fc 20 μg/ml (FIG. 6B); for effect on MAG-Fc-suppressed neurite outgrowth: MAG-Fc 25 μg/ml (FIG. 5A); for peptide concentration with maximal effects on neurite outgrowth / peptide concentration with significant effects on neurite outgrowth: MAG-Fc 20 μg/ml (FIG. 6A); for antagonism of inhibitory activity of MAG-Fc: peptide 50 μg/ml (60 μM)
Procedure: (§1) Cerebellar neurons isolated from postnatal day ⅔ rat pups were cultured over monolayers of 3T3 cells (Doherty et al. (1991) Neuron 6(2):247-58) essentially as previously described (Williams et al. (1994) Neuron 13(3):583-94). Monolayers were established by seeding ˜80,000 cells into individual chambers of an eight-chamber tissue culture slide coated with poly-L-lysine and fibronectin. The cell lines, and monolayers, were maintained in Dulbecco's modified Eagle's medium supplemented with 10% fetal calf serum (FCS). Cocultures were established by removing the media from the monolayers and seeding ˜6000 dissociated cerebellar neurons into each well in SATO medium (modified from Doherty et al. (1990) Neuron 5(2):209-19; Dulbecco's modified Eagle's medium supplemented with 2% FBS, 33% bovine albumin, 0.62 μg/ml progesterone, 161 μg/ml putrescine, 4 μg/ml L-thyroxine, 0.387 μg/ml selenium, and 3.37 μg/ml tri-iodo-thyronine (components from Sigma-Aldrich, St. Louis, Mo.)). Monolayers were established for 24 hours prior to addition of the neurons and the cultures were maintained for ˜23-27 hr. Following careful fixation with 4% paraformaldehyde, the neurons were stained with a GAP-43 antibody, and the mean length of the longest neurite per cell was measured for ˜120-150 neurons, again as previously described (Williams et al. (1994) supra). For neurite outgrowth on substrate-bound MAG, 96-well plates were coated with a thin layer of nitrocellulose (Bio-Rad, Hercules, Calif.) before incubating with 1 μg/ml of MAG(d1-5) (a chimeric construct containing domains 1-5 of the extracellular portion of MAG) at 4° C. overnight. Wells were subsequently coated with 17 μg/ml of poly-D-lysine (Sigma, St. Louis, Mo.), followed by incubation in Dulbecco's modified Eagle's medium containing 10% FCS. Cerebellar granule neurons were dissociated and seeded at a density of 10^4 cells per well. Cells were cultured for 18-20 h before being fixed with 4% paraformaldehyde and stained with a neuronal-specific anti-III-tubulin antibody, Tuj 1 (Covance, Emeryville, Calif.). The average of total neurite lengths from each neuron was measured automatically by the MetaXpress Neurite Outgrowth module (Molecular Devices, Sunnyvale, Calif.) from at least 200 neurons per well, in triplicate wells per experiment. Results were repeated independently more than three times.
(§2) Synthetic peptides were all obtained from a commercial supplier (Multiple Peptide Systems, San Diego, Calif.). All peptides were purified to the highest grade by reverse-phase HPLC and obtained at the highest level of purity (>97%). With all peptides, there was no indication of higher molecular weight species. Where peptide sequences are underlined, this denotes a peptide that has been cyclized via a disulfide bond between the given cysteine residues. All peptides were acetylated (e.g., denoted with “N-Ac-”) and amide blocked (e.g., denoted with “—NH2”). Recombinant MAG-Fc chimera was obtained from R&D Systems (Minneapolis, Minn.) and used at final concentrations ranging from 5-25 μg/ml. The monoclonal antibody to GT1b (clone GMR5) was obtained from Seikagaku America (Falmouth, Mass.) and was used at a final concentration of 20 μg/ml. All reagents were diluted into the coculture media and, in general, added to the cultures just prior to the plating of the neurons. GT1b and GM1 were obtained as gifts from Dr. Gino Toffano (Libero, Italy) and University of Milan, and asialo-GM1 was obtained from Sigma (St. Louis, Mo.). The recombinant NgR1(310)-fc and MAG(d1-5) chimeras were expressed and purified in-house. Pharmacological reagents were obtained from Calbiochem (La Jolla, Calif.) and/or Sigma. For reagents used in cell-surface NgR binding assays, please see Examples 1.5 and 1.7. For reagents used in the cell surface p75NTR-NgR-AP binding assay, please see Example 1.13.
(§3) In contrast, a soluble MAG-Fc chimera inhibits neurite outgrowth in a manner that depends upon both ganglioside and NgR function. […]

cerebellar neurons [2] = test: Neurite outgrowth assay, control media (basal outgrowth); assay type: cell-based, rat; conditions: for effect on basal neurite outgrowth: peptide 100 μg/ml, without MAG-Fc
Procedure: as §1, §2, §3

cerebellar neurons [3] = test: Neurite outgrowth assay, inhibition by GT1b antibody; assay type: cell-based, rat; conditions: peptide 100 μg/ml; antibody tested at up to 40 μg/ml
Procedure: Cerebellar neurons isolated from postnatal day ⅔ rat pups were cultured over monolayers of 3T3 cells (Doherty et al. (1991) Neuron 6(2):247-58) essentially as previously described (Williams et al. (1994) Neuron 13(3):583-94). Monolayers were established by seeding ˜80,000 cells into individual chambers of an eight-chamber tissue culture slide coated with poly-L-lysine and fibronectin. The cell lines, and monolayers, were maintained in Dulbecco's modified Eagle's medium supplemented with 10% fetal calf serum (FCS). […] Following careful fixation with 4% paraformaldehyde, the neurons were stained with a GAP-43 antibody, and the mean length of the longest neurite per cell was measured for ˜120-150 neurons, again as previously described (Williams et al. (1994) supra). […] The average of total neurite lengths from each neuron was measured automatically by the MetaXpress Neurite Outgrowth module (Molecular Devices, Sunnyvale, Calif.) from at least 200 neurons per well, in triplicate wells per experiment. […]

NgR1(310)-fc = target: T1, NgR1(310)-fc (Homo sapiens, UniProt Q9BZR6); test: Analytical ultracentrifugation (sedimentation velocity), wild type receptor; assay type: binding; conditions: ganglioside 0 to 48 μM (FIG. 3A-C)
T1 construct: made in house; host or cells: mammalian expression vector (pSMED2)
T1 sequence (Q9BZR6 with tags, fused parts or gaps limits assumed): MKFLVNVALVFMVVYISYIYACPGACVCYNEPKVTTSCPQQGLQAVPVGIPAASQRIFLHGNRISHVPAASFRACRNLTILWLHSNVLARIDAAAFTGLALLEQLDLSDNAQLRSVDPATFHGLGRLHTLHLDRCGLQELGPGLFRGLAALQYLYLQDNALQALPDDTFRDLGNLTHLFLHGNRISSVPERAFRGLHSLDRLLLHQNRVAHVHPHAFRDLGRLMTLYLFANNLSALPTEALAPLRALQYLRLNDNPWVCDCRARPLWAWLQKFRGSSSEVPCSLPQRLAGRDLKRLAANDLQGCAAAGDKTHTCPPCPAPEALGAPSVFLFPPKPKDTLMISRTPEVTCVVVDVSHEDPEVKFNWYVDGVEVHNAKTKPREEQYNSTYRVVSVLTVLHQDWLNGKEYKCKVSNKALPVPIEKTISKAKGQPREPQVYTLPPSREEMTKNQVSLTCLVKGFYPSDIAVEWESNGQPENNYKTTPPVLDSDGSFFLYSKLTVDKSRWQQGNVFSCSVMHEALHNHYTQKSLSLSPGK
Text: Human Nogo Receptor 1 (NgR1)(310)-fc point mutants (FRG-1 (R151E); FRG-2 (R279E); FRG-3 (R199E), and FRG-4 (R151E/R279E/R199E)) were constructed by Genewiz (North Brunswick, N.J.) using their site-directed mutagenesis technology. The template used to construct all the described mutants was wild type human NgR1(310)-fc (SEQ ID NO:59), which was generated by fusing a nucleotide sequence corresponding to the first 310 amino acid of Human Nogo Receptor 1 to a human Fc fragment in a mammalian expression vector (the sequence of wild type NgR1(310)-fc and the expression vector is set forth in SEQ ID NO:60 and a schematic of the expression vector is shown in FIG. 11). […]
Sedimentation velocity experiments were performed on a Beckman XLI/XLA analytical ultracentrifuge. […] Scans were recorded at 20° C. with a rotor speed of 35,000 rpm, and the signal was detected at 230 nm with a spacing of 0.006 in the continuous mode. Sedimentation profiles were analyzed by the program Sedfit (Schuck (2000) Biophys. J. 78:1606-19) to obtain the sedimentation coefficient distributions. The solvent density (1.006) and partial specific volume (0.72) were calculated using the program Sednterp (Laue et al. (1992) Analytical Ultracentrifugation in Biochemistry and Polymer Science (Harding, S. E., Towe, A. J. and Horton, J. C., eds.) pp. 90-125, Royal Society of Chemistry, Cambridge, U.K). […]

[4] = without MAG-Fc (data not shown)

Substance: N-Ac-CQAFRGC-NH2 (disulfide 1-7 (inferred))
- efficacy of peptide relative to NRL2b over a range of concentrations (cerebellar neurons [1]): no obvious effect on the efficacy of the peptide
- antagonism of MAG-mediated inhibition of axonal growth (cerebellar neurons [1]): as effective as NRL2b

Substance: N-Ac-CQKARGC-NH2 (disulfide 1-7 (inferred))
- efficacy of peptide relative to NRL2b over a range of concentrations (cerebellar neurons [1]): reduced efficacy by about two-fold
- antagonism of MAG-mediated inhibition of axonal growth (cerebellar neurons [1]): as effective as NRL2b

Substance: N-Ac-CYNEPKVTC-NH2 (disulfide 1-9 (inferred)) [NRL1]
- effect on MAG-Fc-suppressed neurite outgrowth (cerebellar neurons [1]): no effect
- effect on basal neurite outgrowth (cerebellar neurons [2]): no effect

Substance: N-Ac-CQKFRAC-NH2 (disulfide 1-7 (inferred))
- antagonism of MAG-mediated inhibition of axonal growth (cerebellar neurons [1]): ineffective

Substance: N-Ac-CSLPQRLAC-NH2 (disulfide 1-9 (inferred)) [NRL3]
- effect on MAG-Fc-suppressed neurite outgrowth (cerebellar neurons [1]): no effect
- effect on basal neurite outgrowth (cerebellar neurons [2]): no effect

Substance: N-Ac-CKFRGSC-NH2 (disulfide 1-7 (inferred)) [NRL2a]
- peptide concentration with maximal effects on neurite outgrowth (cerebellar neurons [1]): 50 μg/ml and 60 μM
- peptide concentration with significant effects on neurite outgrowth (cerebellar neurons [1]): 25 μg/ml and 30 μM
- antagonism of inhibitory activity of MAG-Fc (cerebellar neurons [1]): effectively antagonized
- effect on neurite outgrowth in control media (cerebellar neurons [2]; [4]): no effect

Substance: N-Ac-CLQKFRGSSC-NH2 (disulfide 1-10 (inferred)) [NRL2]
- antagonism of GT1b antibody inhibition of neurite outgrowth (cerebellar neurons [3]): fully inhibited the response; also recorded: failed to inhibit neurite outgrowth
- peptide concentration at which response reaches plateau (cerebellar neurons [1]; MAG-Fc 25 μg/ml (FIG. 5B)): ~45 µM
- peptide concentration with near maximal inhibitory activity (cerebellar neurons [1]; MAG-Fc present): ~45 µM
- effect on MAG-Fc-suppressed neurite outgrowth (cerebellar neurons [1]): failed to substantially inhibit neurite outgrowth
- effect on basal neurite outgrowth (cerebellar neurons [2]): no effect
- effect on neurite outgrowth in control media (cerebellar neurons [2]; tested at up to 200 μg/ml): no significant effect

Substance: asialo-GM1
- interaction with NgR1(310)-fc (shift of sedimentation coefficient) (NgR1(310)-fc): did not interact; also recorded: No change in sedimentation coefficient

Substance: N-Ac-CAGRDLKRC-NH2 (disulfide 1-9 (inferred)) [NRL4]
- effect on MAG-Fc-suppressed neurite outgrowth (cerebellar neurons [1]): no effect
- effect on basal neurite outgrowth (cerebellar neurons [2]): no effect

Substance: N-Ac-CQKFAGC-NH2 (disulfide 1-7 (inferred))
- antagonism of MAG-mediated inhibition of axonal growth (cerebellar neurons [1]): ineffective

Substance: QKFRG (listed as Homo sapiens)
- antagonism of MAG-mediated inhibition of axonal growth (cerebellar neurons [1]): did not antagonize

Substance: N-Ac-CQKFRGC-NH2 (disulfide 1-7 (inferred)) [NRL2b]
- peptide concentration with maximal effects on neurite outgrowth (cerebellar neurons [1]): 50 μg/ml and 60 μM
- peptide concentration with significant effects on neurite outgrowth (cerebellar neurons [1]): 25 μg/ml and 30 μM
- antagonism of inhibitory activity of MAG-Fc (cerebellar neurons [1]): effectively antagonized
- effect on neurite outgrowth in control media (cerebellar neurons [2]; [4]): no effect
